Here are results for seven molecules from ChEMBL document CHEMBL1137332, “Crystal structures of human adenosine kinase inhibitor complexes reveal two distinct binding modes” (J Med Chem, 2006).

The target of this assay is Adenosine kinase (Homo sapiens, UniProt P55263). The assay can be described thus: Inhibition of human cytosolic AK.
Sequence of Adenosine kinase (P55263 whole entry): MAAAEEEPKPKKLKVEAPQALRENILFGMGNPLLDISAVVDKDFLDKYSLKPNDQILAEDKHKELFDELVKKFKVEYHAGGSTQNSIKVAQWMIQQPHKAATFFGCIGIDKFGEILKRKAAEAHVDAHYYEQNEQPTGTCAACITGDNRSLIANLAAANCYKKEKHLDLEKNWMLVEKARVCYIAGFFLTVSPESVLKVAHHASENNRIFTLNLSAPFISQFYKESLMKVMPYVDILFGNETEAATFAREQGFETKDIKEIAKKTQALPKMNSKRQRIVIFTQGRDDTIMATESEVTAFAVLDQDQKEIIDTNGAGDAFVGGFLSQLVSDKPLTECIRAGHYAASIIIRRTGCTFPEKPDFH

As usually defined, the IC50 is the concentration that gives 50% inhibition. A high value points to a need for much substance. Molecule `Nc1cc(C#Cc2ccc(N3CCOCC3)nc2)ncn1` had an IC50 of 120 nM.
`CN(C)c1ccc(C#Cc2ncnc(N)c2-c2ccccc2)cc1` had an IC50 of 20 nM.
Consider `CN(C)c1ccc(-c2c(N)ncnc2C#Cc2ccc(N3CCOCC3)nc2)cc1`, for which the midpoint of inhibition, the IC50, lay at 68 nM.
As to `Cc1nc(N)c(-c2ccccc2)c(C#Cc2ccc(N(C)C)cc2)n1`, the IC50 is greater than 1000 nM.
On to `Nc1ncnc(C#Cc2ccc(N3CCOCC3)nc2)c1CCCc1ccccc1`, for which the IC50 was 2.5 nM.
In the case of `CN(C)c1ccc(C#Cc2ncnc(N)c2-c2ccc3c(c2)OCO3)cc1`, 9 nM corresponded to half-maximal inhibition (IC50).
For `Nc1ncnc(C#Cc2ccc(N3CCOCC3)nc2)c1Cc1ccccc1` the value was 40 nM.
